Data from ChEMBL document CHEMBL1697692, “Developing structure-activity relationships for the prediction of hepatotoxicity” (Chem Res Toxicol, 2010).
Numbered stars: 1 amine (or outer) side, 2 acyl side, 3 side chain; on linkers, the order of the positions; unused ones are H or OH. Bridge positions count the residues as written; N and C are the ends. Square brackets hold non-standard residues; d marks the D form. Peptide text beside a SMILES is read from it. I, II: the chains in the order shown. Actinocin(9to1) = Cc1c2oc3c(C)ccc(C(=O)[*:1])c3nc-2c(C(=O)[*:2])c(N)c1=O; NMeV = CN[C@H](C(=O)O)C(C)C; Sar = CNCC(=O)O

The molecules below were run on Hepatotoxicity (assay: Literature-mined public compounds from Greene et al multi-species hepatotoxicity modelling dataset).
With `CC1(C)[C@@H](OC(=O)CCC(=O)[O-])CC[C@]2(C)[C@H]3C(=O)C=C4[C@@H]5C[C@@](C)(C(=O)[O-])CC[C@]5(C)CC[C@@]4(C)[C@]3(C)CC[C@@H]12.[Na+].[Na+]` [CARBENOXOLONE SODIUM] the Hepatotoxicity was “NE: No evidence of hepatotoxicity in any species”. In the case of `C[C@@](Cc1ccc(O)c(O)c1)(NN)C(=O)O.O` [CARBIDOPA], the Hepatotoxicity was “NE: No evidence of hepatotoxicity in any species”. In the case of `ClC(Cl)(Cl)Cl` [CARBON TETRACHLORIDE], the Hepatotoxicity was “HH: Evidence of human hepatotoxicity”. `CC1=C(C(=O)O)N2C(=O)[C@@H](NC(=O)[C@H](N)c3ccc(O)cc3)[C@H]2SC1` [CEFADROXIL] was tested, and the Hepatotoxicity was “HH: Evidence of human hepatotoxicity”. For `Cn1nnnc1SCC1=C(C(=O)[O-])N2C(=O)[C@@H](NC(=O)[C@H](O)c3ccccc3)[C@H]2SC1.[Na+]` [CEFAMANDOLE SODIUM], the Hepatotoxicity was “HH: Evidence of human hepatotoxicity”. In the case of `CCN1CCN(C(=O)N[C@@H](C(=O)N[C@@H]2C(=O)N3C(C(=O)O)=C(CSc4nnnn4C)CS[C@H]23)c2ccc(O)cc2)C(=O)C1=O.O.O` [CEFOPERAZONE DIHYDRATE], the Hepatotoxicity was “NE: No evidence of hepatotoxicity in any species”. `CO[C@@]1(NC(=O)C2SC(=C(C(N)=O)C(=O)O)S2)C(=O)N2C(C(=O)O)=C(CSc3nnnn3C)CS[C@@H]21` (stereo partly specified) [CEFOTETAN] was tested, and the Hepatotoxicity was “NE: No evidence of hepatotoxicity in any species”. For `CN(C)CCn1nnnc1SCC1=C(C(=O)O)N2C(=O)[C@@H](NC(=O)Cc3csc(N)n3)[C@H]2SC1.Cl.Cl` [CEFOTIAM HYDROCHLORIDE], the Hepatotoxicity was “HH: Evidence of human hepatotoxicity”. For `CO[C@@]1(NC(=O)Cc2cccs2)C(=O)N2C(C(=O)O)=C(COC(N)=O)CS[C@@H]21` [CEFOXITIN], the Hepatotoxicity was “HH: Evidence of human hepatotoxicity”. In the case of `CC(C)(O/N=C(\C(=O)N[C@@H]1C(=O)N2C(C(=O)[O-])=C(C[n+]3ccccc3)CS[C@H]12)c1csc(N)n1)C(=O)O` [CEFTAZIDIME], the Hepatotoxicity was “WE: Weak evidence (<10 case reports) of human hepatotoxicity”. With `O=C(Cc1cccs1)N[C@@H]1C(=O)N2C(C(=O)[O-])=C(C[n+]3ccccc3)CS[C@H]12` [CEPHALORIDINE] the Hepatotoxicity was “AH: Evidence for animal hepatotoxicity but not tested in humans”. In the case of `CC(=O)OCC1=C(C(=O)[O-])N2C(=O)[C@@H](NC(=O)Cc3cccs3)[C@H]2SC1.[Na+]` [CEPHALOTHIN SODIUM], the Hepatotoxicity was “HH: Evidence of human hepatotoxicity”. In the case of `CC(=O)OCC1=C(C(=O)[O-])N2C(=O)[C@@H](NC(=O)CSc3ccncc3)[C@H]2SC1.[Na+]` [CEPHAPIRIN SODIUM], the Hepatotoxicity was “NE: No evidence of hepatotoxicity in any species”. With `CC1=C(C(=O)O)N2C(=O)[C@@H](NC(=O)[C@H](N)C3=CCC=CC3)[C@H]2SC1` [CEPHRADINE] the Hepatotoxicity was “NE: No evidence of hepatotoxicity in any species”. With `COCc1c(C(C)C)nc(C(C)C)c(/C=C/[C@@H](O)C[C@@H](O)CC(=O)O)c1-c1ccc(F)cc1` [CERIVASTATIN] the Hepatotoxicity was “HH: Evidence of human hepatotoxicity”. For `C[C@H](CCC(=O)O)[C@H]1CC[C@H]2[C@@H]3[C@H](O)C[C@@H]4C[C@H](O)CC[C@]4(C)[C@H]3CC[C@]12C` [CHENODIOL], the Hepatotoxicity was “HH: Evidence of human hepatotoxicity”. `CCCCCCCCCCCCCCCC(=O)OC[C@@H](NC(=O)C(Cl)Cl)[C@H](O)c1ccc([N+](=O)[O-])cc1` [CHLORAMPHENICOL PALMITATE] was tested, and the Hepatotoxicity was “HH: Evidence of human hepatotoxicity”. With `ClC(Cl)Cl` [CHLOROFORM] the Hepatotoxicity was “AH: Evidence for animal hepatotoxicity but not tested in humans”. In the case of `CCN(CC)CCCC(C)Nc1ccnc2cc(Cl)ccc12.O=P(O)(O)O.O=P(O)(O)O` (stereo unspecified) [CHLOROQUINE PHOSPHATE], the Hepatotoxicity was “WE: Weak evidence (<10 case reports) of human hepatotoxicity”. `CN(C)CCC(c1ccc(Cl)cc1)c1ccccn1.O=C(O)/C=C\C(=O)O` (stereo unspecified) [CHLORPHENIRAMINE MALEATE] was tested, and the Hepatotoxicity was “HH: Evidence of human hepatotoxicity”. `CN(C)CCCN1c2ccccc2Sc2ccc(Cl)cc21` [CHLORPROMAZINE] was tested, and the Hepatotoxicity was “HH: Evidence of human hepatotoxicity”. In the case of `CCCNC(=O)NS(=O)(=O)c1ccc(Cl)cc1` [CHLORPROPAMIDE], the Hepatotoxicity was “HH: Evidence of human hepatotoxicity”. In the case of `CN(C)[C@@H]1C(O)=C(C(N)=O)C(=O)[C@@]2(O)C(O)=C3C(=O)c4c(O)ccc(Cl)c4[C@@](C)(O)[C@H]3C[C@@H]12.Cl` [CHLORTETRACYCLINE HYDROCHLORIDE], the Hepatotoxicity was “HH: Evidence of human hepatotoxicity”. For `Cc1cc(C2CCCCC2)n(O)c(=O)c1` [CICLOPIROX], the Hepatotoxicity was “NE: No evidence of hepatotoxicity in any species”. For `CC1(COc2ccc(CC3SC(=O)NC3=O)cc2)CCCCC1` (stereo unspecified) [CIGLITAZONE], the Hepatotoxicity was “HH: Evidence of human hepatotoxicity”. With `CN/C(=N/CCSCc1nc[nH]c1C)NC#N` [CIMETIDINE] the Hepatotoxicity was “WE: Weak evidence (<10 case reports) of human hepatotoxicity”. For `O=C(O)c1cc(-c2ccccc2)nc2ccccc12` [CINCHOPHEN], the Hepatotoxicity was “HH: Evidence of human hepatotoxicity”. In the case of `CC(C)(Oc1ccc(C2CC2(Cl)Cl)cc1)C(=O)O` (stereo unspecified) [CIPROFIBRATE], the Hepatotoxicity was “HH: Evidence of human hepatotoxicity”. `COc1cc(N)c(Cl)cc1C(=O)NC1CCN(CCCOc2ccc(F)cc2)CC1OC` (stereo unspecified) [CISAPRIDE] was tested, and the Hepatotoxicity was “NE: No evidence of hepatotoxicity in any species”. `CN(C)CCCC1(c2ccc(F)cc2)OCc2cc(C#N)ccc21` (stereo unspecified) [CITALOPRAM] was tested, and the Hepatotoxicity was “WE: Weak evidence (<10 case reports) of human hepatotoxicity”. In the case of `C[N+](C)(C)CCOP(=O)(O)OP(=O)([O-])OC[C@H]1O[C@@H](n2ccc(N)nc2=O)[C@H](O)[C@@H]1O` [CITICOLINE], the Hepatotoxicity was “NE: No evidence of hepatotoxicity in any species”. In the case of `Nc1nc(Cl)nc2c1ncn2[C@H]1C[C@H](O)[C@@H](CO)O1` [CLADRIBINE], the Hepatotoxicity was “NE: No evidence of hepatotoxicity in any species”. With `CC[C@H]1OC(=O)[C@H](C)[C@@H](O[C@H]2C[C@@](C)(OC)[C@@H](O)[C@H](C)O2)[C@H](C)[C@@H](O[C@@H]2O[C@H](C)C[C@H](N(C)C)[C@H]2O)[C@](C)(OC)C[C@@H](C)C(=O)[C@H](C)[C@@H](O)[C@]1(C)O` [CLARITHROMYCIN] the Hepatotoxicity was “HH: Evidence of human hepatotoxicity”. With `CN1CCC[C@@H]1CCO[C@](C)(c1ccccc1)c1ccc(Cl)cc1.O=C(O)/C=C/C(=O)O` [CLEMASTINE FUMARATE] the Hepatotoxicity was “NE: No evidence of hepatotoxicity in any species”. `NC1CCN(c2c(F)cc3c(=O)c(C(=O)O)cn(C4CC4)c3c2Cl)C1` (stereo unspecified) [CLINAFLOXACIN] was tested, and the Hepatotoxicity was “WE: Weak evidence (<10 case reports) of human hepatotoxicity”. For `CCC[C@@H]1C[C@@H](C(=O)N[C@@H]([C@H]2O[C@H](SC)[C@H](O)[C@@H](O)[C@H]2O)[C@H](C)Cl)N(C)C1.Cl` [CLINDAMYCIN HYDROCHLORIDE], the Hepatotoxicity was “HH: Evidence of human hepatotoxicity”. In the case of `CCOC(=O)C(C)(C)Oc1ccc(Cl)cc1` [CLOFIBRATE], the Hepatotoxicity was “HH: Evidence of human hepatotoxicity”. With `CN(C)CCCN1c2ccccc2CCc2ccc(Cl)cc21` [CLOMIPRAMINE] the Hepatotoxicity was “HH: Evidence of human hepatotoxicity”. `Cl.Clc1cccc(Cl)c1NC1=NCCN1` [CLONIDINE HYDROCHLORIDE] was tested, and the Hepatotoxicity was “HH: Evidence of human hepatotoxicity”. For `Clc1ccccc1C(c1ccccc1)(c1ccccc1)n1ccnc1` [CLOTRIMAZOLE], the Hepatotoxicity was “WE: Weak evidence (<10 case reports) of human hepatotoxicity”. `Cc1onc(-c2ccccc2Cl)c1C(=O)N[C@@H]1C(=O)N2[C@@H]1SC(C)(C)[C@@H]2C(=O)[O-].O.[Na+]` [CLOXACILLIN SODIUM] was tested, and the Hepatotoxicity was “HH: Evidence of human hepatotoxicity”. In the case of `CN1CCN(C2=Nc3cc(Cl)ccc3Nc3ccccc32)CC1` [CLOZAPINE], the Hepatotoxicity was “HH: Evidence of human hepatotoxicity”. In the case of `COc1cc2c(c(OC)c1OC)-c1ccc(OC)c(=O)cc1[C@@H](NC(C)=O)CC2` [COLCHICINE], the Hepatotoxicity was “WE: Weak evidence (<10 case reports) of human hepatotoxicity”. For `O=C(O)c1cc(=O)c2c(OCC(O)COc3cccc4oc(C(=O)O)cc(=O)c34)cccc2o1` [CROMOLYN], the Hepatotoxicity was “NE: No evidence of hepatotoxicity in any species”. For `CN1CCN(C(c2ccccc2)c2ccccc2)CC1` [CYCLIZINE], the Hepatotoxicity was “HH: Evidence of human hepatotoxicity”. In the case of `O=P1(N(CCCl)CCCl)NCCCO1` (stereo unspecified) [CYCLOPHOSPHAMIDE ANHYDROUS], the Hepatotoxicity was “HH: Evidence of human hepatotoxicity”. For `CN1CCC(=C2c3ccccc3C=Cc3ccccc32)CC1.Cl` [CYPROHEPTADINE HYDROCHLORIDE], the Hepatotoxicity was “HH: Evidence of human hepatotoxicity”. For `CC(=O)O[C@]1(C(C)=O)CC[C@H]2[C@@H]3C=C(Cl)C4=CC(=O)[C@@H]5C[C@@H]5[C@]4(C)[C@H]3CC[C@@]21C` [CYPROTERONE ACETATE], the Hepatotoxicity was “AH: Evidence for animal hepatotoxicity but not tested in humans”. With `C=C(C)[C@H]1CC=C(C)CC1` [D-LIMONENE] the Hepatotoxicity was “AH: Evidence for animal hepatotoxicity but not tested in humans”. In the case of `CN(C)/N=N/c1[nH]cnc1C(N)=O` [DACARBAZINE], the Hepatotoxicity was “HH: Evidence of human hepatotoxicity”. With `Cc1c2oc3c(C)ccc(C(=O)N[C@@H]4C(=O)N[C@H](C(C)C)C(=O)N5CCC[C@H]5C(=O)N(C)CC(=O)N(C)[C@@H](C(C)C)C(=O)O[C@@H]4C)c3nc-2c(C(=O)N[C@@H]2C(=O)N[C@H](C(C)C)C(=O)N3CCC[C@H]3C(=O)N(C)CC(=O)N(C)[C@@H](C(C)C)C(=O)O[C@@H]2C)c(N)c1=O` [DACTINOMYCIN] (I: T[dV]P[Sar][NMeV] / II: T[dV]P[Sar][NMeV]; ester I:1-I:C, II:1-II:C; linker I:N-II:N via Actinocin(9to1)) the Hepatotoxicity was “HH: Evidence of human hepatotoxicity”. With `C#C[C@]1(O)CC[C@H]2[C@@H]3CCC4=Cc5oncc5C[C@]4(C)[C@H]3CC[C@@]21C` [DANAZOL] the Hepatotoxicity was “HH: Evidence of human hepatotoxicity”. In the case of `O=C1CN(/N=C/c2ccc(-c3ccc([N+](=O)[O-])cc3)o2)C(=O)[N-]1.[Na+]` [DANTROLENE SODIUM], the Hepatotoxicity was “HH: Evidence of human hepatotoxicity”. `Nc1ccc(S(=O)(=O)c2ccc(N)cc2)cc1` [DAPSONE] was tested, and the Hepatotoxicity was “HH: Evidence of human hepatotoxicity”. For `CC(=O)N(O)CCCCCNC(=O)CCC(=O)N(O)CCCCCNC(=O)CCC(=O)N(O)CCCCCN.CS(=O)(=O)O` [DEFEROXAMINE MESYLATE], the Hepatotoxicity was “HH: Evidence of human hepatotoxicity”. In the case of `CN(CCCCCCCCCCN(C)C(=O)Oc1cccc([N+](C)(C)C)c1)C(=O)Oc1cccc([N+](C)(C)C)c1.[Br-].[Br-]` [DEMECARIUM BROMIDE], the Hepatotoxicity was “HH: Evidence of human hepatotoxicity”.
